By IC50 is commonly meant the concentration at which inhibition is half-maximal.

Structures can show the parent of a compound that is named as a salt.

The subject of one assay is PMS1. Briefly: Mini-gene reporter assay-PMS1. It counts as cell-based. Conditions: Homo sapiens, HEK293, PMS1 mini-gene firefly luciferase reporter transiently transfected into HEK293 cells; read-out: PMS1 IC50. Put shortly: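 Compound dilution series in duplicate added to transiently transfected HEK293 reporter cells, then incubated; EC50 from Levenberg-Marquardt fit of luminescence. The reporter joins the alternatively skipped exon, its neighbouring introns and exons to firefly luciferase, so induced inclusion gives more signal.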
In general terms: A reporter such as luciferase makes a cellular process visible.
Turning to `CCOc1nc(N(CC)C2CCNCC2)ncc1C(=O)Nc1ccc2nn(C)cc2c1` [Compound 272, 4-ethoxy-2-(ethyl(piperidin-4-yl)amino)-N-(2-methyl-2H-indazol-5-yl)pyrimidine-5-carboxamide formate], the IC50 lay within 1000 to 3000 nM.
On the same count and under the same terms, to `CCOc1nc(N2CCC[C@H]3CNC[C@H]32)ncc1C(=O)Nc1cc(F)c2nc(C)cn2c1` [Compound 193] belongs 500 to 1000 nM; to `CCOc1nc(N2CCNCC2)ncc1C(=O)Nc1cn2cc(C)nc2cn1` [Compound 9, 4-ethoxy-N-{2-methylimidazo[1,2-a]pyrazin-6-yl}-2-(piperazin-1-yl)pyrimidine-5-carboxamide], 1000 to 3000 nM; to `CCOc1nc(N2CC3(CCNCC3)CC2C)ncc1C(=O)Nc1cc(F)c2nc(C)cn2c1` (stereo not shown) [Compound 152], 500 to 1000 nM.
For `CCOc1nc(N2CCC3(CCCCN3)C2)ncc1C(=O)Nc1cn2cc(C)nc2c(C)n1` (stereo not shown) [Compound 96], the IC50 is 1000 to 3000 nM.
Same read-out and setting: to `CCOc1nc(N2CCC(C3NCC3(C)C)CC2)ncc1C(=O)Nc1cc(F)c2nc(C)cn2c1` (stereo not shown) [Compound 123] belongs under 500 nM; to `CCOc1nc(N(C)CC2CCCN2)ncc1C(=O)Nc1cc(F)c2nc(C)cn2c1` (stereo not shown) [Compound 200], 1000 to 3000 nM; to `CCOc1nc(N(C)C2CCNCC2)ncc1C(=O)Nc1cn2cc(C)nc2c(C)n1` [Compound 57], under 500 nM.
In the case of `CCOc1nc(N2C[C@@H]3C[C@H]2CN3)ncc1C(=O)Nc1cn2cc(C)nc2c(C)n1` [Compound 55], the IC50 was over 3000 nM.
As for `CCOc1nc(N2C[C@H]3CNCC[C@H]3C2)ncc1C(=O)Nc1cn2cc(C)nc2c(C)n1` (racemic) [Compound 105], the concentration for half-maximal inhibition (IC50) is under 500 nM.
Consider `CCOc1nc(N(C)C2CC3CCC(C2)N3)ncc1C(=O)Nc1cn2cc(C)nc2c(C)n1` (stereo not shown) [Compound 37], for which the IC50 was under 500 nM.
Regarding `CCOc1nc(N2CCC(N(C)C)C2)ncc1C(=O)Nc1cc(F)c2nc(C)cn2c1` (stereo not shown) [Compound 269, 2-(3-(dimethylamino)pyrrolidin-1-yl)-4-ethoxy-N-(8-fluoro-2-methylimidazo[1,2-a]pyridin-6-yl)pyrimidine-5-carboxamide], the IC50 was 1000 to 3000 nM.
Turning to `CCOc1nc(N2CC[C@H](N(C)C)C2)ncc1C(=O)Nc1cc(F)c2nc(C)cn2c1` [Compound 294, (S)-2-(3-(dimethylamino)pyrrolidin-1-yl)-4-ethoxy-N-(8-fluoro-2-methylimidazo[1,2-a]pyridin-6-yl)pyrimidine-5-carboxamide formate], the IC50 is over 3000 nM.
On the same count and under the same terms, the value for `CCOc1nc(N2CC3(CNC3)C2)ncc1C(=O)Nc1cn2cc(C)nc2c(C)n1` [Compound 18, 2-{2,6-diazaspiro[3.3]heptan-2-yl}-N-{2,8-dimethylimidazo[1,2-a]pyrazin-6-yl}-4-ethoxypyrimidine-5-carboxamide] was under 500 nM; that for `CCOc1nc(N2CC3CNCC3C2)ncc1C(=O)Nc1cn2cc(C)nc2cn1` (stereo not shown) [Compound 28, 4-ethoxy-N-{2-methylimidazo[1,2-a]pyrazin-6-yl}-2-{octahydropyrrolo[3,4-c]pyrrol-2-yl}pyrimidine-5-carboxamide] was 1000 to 3000 nM; that for `CCOc1nc(N(CC)C2CCCNC2)ncc1C(=O)Nc1cc(F)c2nc(C)cn2c1` (stereo not shown) [Compound 215] was 1000 to 3000 nM.
The same measure, in the same setting: the value for `CCOc1nc(N2CCCCC(C3CNC3)C2)ncc1C(=O)Nc1cc(F)c2nc(C)cn2c1` (stereo not shown) [Compound 150] was 1000 to 3000 nM; that for `CCOc1nc(N2CCCC(C3CCCN3)C2)ncc1C(=O)Nc1cc(F)c2nc(C)cn2c1` (stereo not shown) [Compound 180] was under 500 nM.
The same measure, in the same setting: to `CCOc1nc(N2CCNC(C)CC2)ncc1C(=O)Nc1cn2cc(C)nc2c(C)n1` (stereo not shown) [Compound 71] belongs 500 to 1000 nM; to `CCOc1nc(N2CC3(CC(NC)CO3)C2)ncc1C(=O)Nc1cn2cc(C)nc2c(C)n1` (stereo not shown) [Compound 33], over 3000 nM.
On to `CCOc1nc(N2CCNC(C(F)F)C2)ncc1C(=O)Nc1cc(F)c2nc(C)cn2c1` (stereo not shown) [Compound 115], for which the half-inhibitory concentration (IC50) is over 3000 nM.
The same measure, in the same setting: the value for `CCOc1nc(N2CC(NC)C2)ncc1C(=O)Nc1cn2cc(C)nc2c(C)n1` [Compound 43] was over 3000 nM; that for `CCOc1nc(N2C3CCC2CC(NC)C3)ncc1C(=O)Nc1cc(F)c2nc(C)cn2c1` (stereo not shown) [Compound 157] was under 500 nM; that for `CCOc1nc(N2CCNC(CC(F)F)C2)ncc1C(=O)Nc1cc(F)c2nc(C)cn2c1` (stereo not shown) [Compound 110] was 1000 to 3000 nM.
On the same count and under the same terms, the value for `CCOc1nc(N2CCC(N3CCNCC3)CC2)ncc1C(=O)Nc1cc(F)c2nc(C)cn2c1` [Compound 222] was 1000 to 3000 nM; that for `CCOc1nc(N2CCC(CNC)C2)ncc1C(=O)Nc1cc(F)c2nc(C)cn2c1` (stereo not shown) [Compound 211] was under 500 nM.
For the compound `CCOc1nc(N2CCC(NC)CC2)ncc1C(=O)Nc1cn2cc(C)nc2c(C)n1` [Compound 39], the half-maximal inhibitory concentration (IC50) was under 500 nM.
The same measure, in the same setting: the value for `CCOc1nc(N2CCC(NCC3CC3)CC2)ncc1C(=O)Nc1cc(F)c2nc(C)cn2c1` [Compound 164] was under 500 nM; that for `CCOc1nc(N2CCNCC3(CC3)C2)ncc1C(=O)Nc1cn2cc(C)nc2c(C)n1` [Compound 92] was 1000 to 3000 nM.
With `CCOc1nc(N2CC[C@@H]3CNC[C@@H]3C2)ncc1C(=O)Nc1cn2cc(C)nc2c(C)n1` (racemic) [Compound 29], the concentration for half-maximal inhibition (IC50) is over 3000 nM.
With `CCOc1nc(N2CC[C@@H]3CNC[C@@H]32)ncc1C(=O)Nc1cn2cc(C)nc2c(C)n1` (racemic) [Compound 60], the IC50 was 500 to 1000 nM.
As for `CCOc1nc(N2CCNCC2)ncc1C(=O)Nc1cc(OC)c2nc(C)cn2c1` [Compound 27, 4-ethoxy-N-{8-methoxy-2-methylimidazo[1,2-a]pyridin-6-yl}-2-(piperazin-1-yl)pyrimidine-5-carboxamide], the IC50 was in the range of 500 to 1000 nM.
As for `CCOc1nc(N(C)[C@@H]2CNC[C@H]2O)ncc1C(=O)Nc1cc(F)c2nc(C)cn2c1` (racemic) [Compound 174], the IC50 lay within 1000 to 3000 nM.
With `CCOc1nc(N2CCC3(CNC3)C2)ncc1C(=O)Nc1cn2cc(C)nc2c(C)n1` [Compound 78], the half-maximal inhibitory concentration (IC50) was under 500 nM.
For `CCOc1nc(N2CCC(NC)C2)ncc1C(=O)Nc1ccc2nc(C)cn2n1` (stereo not shown) [Compound 319], the IC50 was over 3000 nM.
On the same count and under the same terms, to `CCN(c1ncc(C(=O)Nc2cc(F)c3nn(C)cc3c2)c(OC)n1)C1CCNCC1` [Compound 284, 2-(ethyl(piperidin-4-yl)amino)-N-(7-fluoro-2-methyl-2H-indazol-5-yl)-4-methoxypyrimidine-5-carboxamide formate] belongs under 500 nM.

Staying with this assay, now noted: Homo sapiens, HEK293, read-out: PMS1 IC50 (nM).
Turning to `CCOc1nc(N2CCNCC2)ncc1C(=O)Nc1cc(F)c2nc(C)cn2c1` [Compound 2, 4-ethoxy-N-{8-fluoro-2-methylimidazo[1,2-a]pyridin-6-yl}-2-(piperazin-1-yl)pyrimidine-5-carboxamide], the IC50 is under 500 nM.

The same assay, now with this note: Homo sapiens; at 5 μM; PMS1 mini-gene firefly luciferase reporter in HEK293 cells; read-out: PMS1% Effect at 5 μM.
On to `CCOc1nc(N2CCNC(CC(F)F)C2)ncc1C(=O)Nc1cc(F)c2nc(C)cn2c1` (single isomer, unassigned) [Compound 309], for which the activation at 5 µM lay within 50 to 75%.
On the same count and under the same terms, the value for `CCOc1nc(N2CCC(C3(O)CNC3)CC2)ncc1C(=O)Nc1cn2cc(C)nc2c(C)n1` [Compound 75] was under 50%.
Take `CCOc1nc(N2CC(C)OC3(CCNCC3)C2)ncc1C(=O)Nc1cc(F)c2nc(C)cn2c1` (stereo not shown) [Compound 162]: the activation at 5 µM is under 50%.

Values taken from patent US20250122192A1, “5-PYRIMIDINECARBOXAMIDE DERIVATIVES AND METHODS OF USING THE SAME” (Rgenta Therapeutics, Inc., priority 2021, published 2025).
